“Also recorded” adds a separate entry of the source.
Experiments:
human erythrocytes = test: In vitro hemolytic activity; type: cell-based; settings: 3.125 to 100 μg/mL, 37°C, 1 h
Procedure: In vitro hemolytic activity of all synthesized compounds was performed as per reported protocol with slight modifications. In brief, human erythrocytes were collected from Rotary Blood Bank (New Delhi, India) and suspended in phosphate buffer saline (PBS). The suspension (2% hemotocrit) was incubated with different concentrations (3.125 to 100 μg/mL) of the entire compound series at 37°C for 1 h. After 1 h, erythrocytes were pelleted at 3000 g for 10 min (Remi, R-8C/BL) at 4°C. The supernatant was collected and OD450 was determined spectrophotometrically (Biotek, ELx800 UV spectrophotometer) using PBS as a negative control and Triton X-100 for completely lysing the cells. The percent hemolysis was calculated using the following formula: Percent hemolysis = […]. The percent hemolysis was plotted against concentration of compounds for determining the dose cytotoxic to erythrocytes.

[1] = test system: CQ resistant strain (7GB) of P. falciparum; test: Antiplasmodial activity against CQ resistant strain; type: cell-based; settings: Plasmodium falciparum; values in brackets; 48 h incubation; read-out: IC50 values ± SE, CQ resistant strain (7GB) (converted)
Procedure: (§1) For compound screening, SYBR green I-based fluorescence assay was setup as described in literature. Sorbitol synchronized parasites were incubated under normal culture conditions at 2% hematocrit and 1% parasitemia in the absence or presence of increasing concentrations of the compounds. Chloroquine (CQ) was used as positive control, while 0.4% DMSO was used as the negative control.
(§2) We have studied the antimalarial effect of all the listed molecules in […] culture conditions in order to identify a putative lead structure for pharmacological applications.

plasmepsin 2 = molecular target: T1, plasmepsin 2 (Plasmodium falciparum, UniProt P46925); test: Inhibition of plasmepsin 2, chromogenic substrate cleavage assay; type: biochemical; settings: tested at 10 to 50 μM
T1 construct: preincubated at the assay pH for 3 minutes to allow conversion from the proenzyme to the mature enzyme form; made in house
T1 sequence (P46925 125-453): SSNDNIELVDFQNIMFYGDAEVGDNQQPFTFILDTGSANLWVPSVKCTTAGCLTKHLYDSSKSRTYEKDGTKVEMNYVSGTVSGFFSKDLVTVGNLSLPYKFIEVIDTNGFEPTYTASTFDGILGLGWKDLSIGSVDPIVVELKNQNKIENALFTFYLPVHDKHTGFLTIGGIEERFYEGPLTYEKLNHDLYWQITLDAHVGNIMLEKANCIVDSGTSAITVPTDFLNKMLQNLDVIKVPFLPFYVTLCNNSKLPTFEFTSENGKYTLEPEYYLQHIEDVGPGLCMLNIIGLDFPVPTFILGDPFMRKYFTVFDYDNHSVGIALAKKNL
Procedure: (§3) Synthetic compounds were dissolved in DMSO to make stock solutions at concentrations around 100 μM. Dilutions from these stocks were made to obtain solutions to use for studying inhibition of the plasmepsins 2 and 4 from P. falciparum. Assays of enzymatic activity were typically done using 50 micromolar substrate and 50 nanomolar enzyme at pH 4.5. The protein samples were preincubated at the assay pH for 3 minutes to allow conversion from the proenzyme to the mature enzyme form, then immediately mixed with inhibitor solutions and incubated for a further 5 minutes to permit the enzyme-inhibitor complex to form. Following this, the samples were mixed with samples of the substrate to yield a 50 μM substrate concentration in the final assay solution and immediately placed in a recording spectrophotometer to follow the reaction. The cleavage of the chromogenic substrate yields a shift in absorbance that can be quantified by the decrease in absorbance at 300 nm. Compounds were mixed with the enzymes at concentrations ranging from 10 to 50 μM range and the effect on enzyme activity studied in duplicate assays.
(§4) A second inhibitor concentration was chosen that would yield approximately 30–35% inhibition and a third inhibitor concentration was chosen to yield approximately 65–70% inhibition. The three resulting curves of initial velocity versus substrate concentration were fit simultaneously to the competitive inhibition scheme; this yields values of Vmax, Km, and Ki.
(§5) Plasmepsins, a family of aspartic proteases of malaria parasite, are known to participate in a wide variety of cellular processes essential for parasite survival. […] Similarly, plasmepsin 4 from P. falciparum can be prepared and activated. Catalytic activity of the plasmepsins can be studied by following the change in absorbance at 300 nm as cleavage occur between a Phe and a nitroPhe in the synthetic substrate, Lys-Pro-Ile-Glu-Phe-NO2Phe-Arg-Leu. The compounds listed in Tables 1, 2 and 3 were assayed for inhibition by preincubating with differnt concentrations of the compound with equal aliquots of either plasmepsin 2 or 4 followed by mixing with the assay substrate.

plasmepsin 4 = molecular target: T2, plasmepsin 4 (Plasmodium falciparum, UniProt Q8IM16); test: Inhibition of plasmepsin 4, chromogenic substrate cleavage assay; type: biochemical; settings: tested at 10 to 50 μM
T2 construct: preincubated at the assay pH for 3 minutes to allow conversion from the proenzyme to the mature enzyme form; made in house
T2 sequence (Q8IM16 122-449): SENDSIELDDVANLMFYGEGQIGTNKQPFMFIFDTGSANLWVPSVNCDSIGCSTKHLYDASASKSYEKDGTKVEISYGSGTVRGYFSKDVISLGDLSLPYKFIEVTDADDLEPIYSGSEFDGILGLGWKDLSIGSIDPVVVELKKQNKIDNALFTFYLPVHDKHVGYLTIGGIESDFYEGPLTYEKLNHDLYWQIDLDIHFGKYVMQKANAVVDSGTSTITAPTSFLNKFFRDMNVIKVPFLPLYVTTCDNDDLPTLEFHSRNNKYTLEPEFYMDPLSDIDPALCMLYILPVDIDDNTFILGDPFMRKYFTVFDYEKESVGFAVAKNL
Procedure: as §3, §4, §5

MCF-7 cell line = test: MTT-colorimetric cytotoxicity assay; type: cell-based; settings: 100, 25 and 6.25 μg mL^-1
Procedure: Phthalimides were serially diluted in DMSO in a final concentration of 100, 25 and 6.25 μg mL^-1 and evaluated for their % cytotoxicity by using MTT-colorimetric assay on MCF-7 cell line. Cell lines were maintained in RPMI-1640 (Hi-Media, Mumbai) medium supplemented with heat inactivated FCS (10% v/v) and 100 U/mL of streptomycin and were cultured in a humidified 5% CO2 atmosphere at 37°C. 100 μL (~2×10^5) of cells were seeded into wells (per well) on a 96-well plate (Nunc, Maxi Sorp) and incubated for 16 h for adherence. After 16 h, media was aspirated from the wells and the cells were washed with RPMI-1640 without FCS. 75 μL of each compound and control was added to separate wells containing cell lines and incubated at 37°C in humidified 5% CO2 atmosphere for 4 h. After 4 h, media containing the compounds was replaced with 200 μL of normal RPMI-1640 and cells were further incubated for 48 h under same conditions. After 48 h media was replaced by 200 μL of MTT (3-(4, 5-dimethylthiazol-2-yl)-2, 5-diphenyltetrazolium bromide, 0.5 mg/mL of RPMI-1640) and further incubated for 2 h. The formazan crystals were formed and suspended in 100 μL iso-propanol containing 0.06 M HCl and 0.5% SDS. Aliquots were drawn from each well and colour intensity was measured spectrophotometrically in an ELISA plate reader (Biotek, ELx800) at 540 nm. Untreated cells were taken as control with 100% viability and cells without addition of MTT were used as blank. The relative cell viability (%) compared to control cells was calculated by [abs] sample/ [abs] control × 100.

[2] = test system: P. falciparum developmental stages (asexual); test: Effect on P. falciparum developmental stages, Giemsa-stained smears; type: cell-based, Plasmodium falciparum; settings: 5 μM
Procedure: Further, in order to assess the effect of potent molecule 5e on the parasite developmental stages (asexual), we treated tightly synchronized ring-stage parasite cultures with 5e at 5 μM concentration and counted the parasites at different developmental stages (rings, trophozoites and schizonts) in Giemsa-stained smears at three time points (36, 44, and 52 h after treatment). The control (untreated) parasite progressed through the first cell cycle (0–48 h), increased in size and density, developed into trophozoites and schizonts and subsequently formed viable merozoites. These merozoites were able to invade fresh RBCs and form new ring-stage parasites. (Fig 4).

P. falciparum 3D7 = test: SYBR green I-based fluorescence parasite growth assay, CQ sensitive strain; type: cell-based, Plasmodium falciparum; settings: Plasmodium falciparum; CQ sensitive strain 3D7; 48 h incubation; read-out: IC50 values ± SE, growth of P. falciparum (3D7)
Procedure: as §1, §2

- IC50 [1]: 2990 nM
- inhibition of plasmepsin 2 (in words) (plasmepsin 2): did not inhibit
- inhibition of plasmepsin 4 (in words) (plasmepsin 4): did not inhibit
- IC50 (P. falciparum 3D7): 1160 ± 40 nM
Compound: CC(C)(C)OC(=O)N[C@H](Cc1ccccc1)[C@@H](O)CN1CCC(N2CCCCC2)CC1 [Compound 5e]
- hemolysis of human erythrocytes (in words) (human erythrocytes): lower hemolysis
- cytotoxic effect on MCF7 cell line (in words) (MCF-7 cell line): low cytotoxic effect; also recorded: less toxic
- total parasitemia compared with the control set ([2]; at 52 h): lower total parasitemia
- effect on parasite developmental stages ([2]; synchronized ring-stage cultures, 36, 44 and 52 h after treatment): developmental arrest in the transition from early to late schizont

— PMC4621027, “Hydroxyethylamine Based Phthalimides as New Class of Plasmepsin Hits: Design, Synthesis and Antimalarial Evaluation” (PLoS ONE, 2015)
